{"source": "patent US11602540B2", "about": "“Method for stimulating blood flow in a penile region of a patient” (BMR MEDICAL LLC, priority 2016, dated 2023)", "test": "treatment of diffuse plaque by carbon dioxide injection into affected corpus tissues", "type": "in vivo, patient", "settings": "injection directly into affected corpus tissues", "description": "In addition to the above treatment method embodiments, Applicants have discovered that injection(s) of carbon dioxide is/are also effective to treat a condition related to Peyronie's disease known as “diffuse plaque” comprising plaque that has not assimilated into any hardened singular construct within the penis, but remains in a “diffuse” state throughout. The preferred treatment method is injection(s) of carbon dioxide directly into the affected corpus tissues to treat the diffuse plaque. This form of carbon dioxide injection treatment may be continued until the diffuse plaque has been sufficiently mitigated or eliminated. Preferably, if more than one carbon dioxide injection is required, then the second injection location is optimally spaced away from the location of the first carbon dioxide injection. As above, the “dose” of each carbon dioxide injection(s) is considered to be “therapeutically effective” which is defined as described above in conjunction with “carboxy therapy”.\nFIG. 10 illustrates one method 900 for treating diffuse plaque using the above-described method steps. Thus, the “diffuse plaque” condition is identified or diagnosed within at least one corpus cavernosa at 902. […] After the initial round of administration/injection(s) of carbon dioxide is complete, the results may be assessed to see if the plaque is mitigated at 908. […]", "data": [{"smiles": "O=C=O", "note": "[carbon dioxide]", "values": [{"measurement": "effectiveness in treating diffuse plaque", "value": "effective"}]}]}
